{"source": "patent US9889088B2", "about": "“Alpha-2 adrenergic agonist having long duration of intraocular pressure-lowering effect” (priority 2010, dated 2018)", "key": {"[1]": {"conditions": "rats, after oral dose of brimonidine tartrate; Acheampong et al. 2007; cited from earlier work"}, "[2]": {"experiment": "Pharmacokinetic analysis of ocular tissues and plasma after topical dosing in rabbits", "assay_type": "in vivo, rabbit", "experimental": "Twenty-three Dutch Belted female rabbits (group 1) weighing approximately 1.75-2.34 kg were dosed with 35 μL of the formulation to the left eye. At different time points, prior to euthanasia, approximately 0.5 mL of blood was collected via central ear artery and placed in EDTA tubes. Blood samples were kept on ice during the duration of sample collection and centrifuged to harvest plasma. Animals were euthanized with 1 mL of Euthasol intravenously and the ocular tissues (aqueous humor, cornea, conjunctiva, iris-ciliary body, retina, and sclera) were collected from left and right eyes. All ocular tissues samples were placed in vials and kept on dry ice during the duration of sample collection. Ocular tissues were also collected from the control group (group 2) which received no dose. These ocular tissues served as analytical control. All ocular tissue and plasma samples were stored at or below −60° C. until bioanalysis.\n(Acheampong et al. (Drug Metabolism and Disposition, Vol 23, No. 7, p 708-712)."}, "[3]": {"system": "intraocular pressure of normotensive Dutch-Belted male rabbits", "experiment": "Intraocular pressure lowering after a single topical eye drop in normotensive rabbits", "assay_type": "in vivo, rabbit", "conditions": "for time for which the decrease in intraocular pressure is maintained: single 50 μl drop, treated eye; for sedation, ocular irritation, and changes in pupil diameter: single topical drop, observed throughout the experiment", "experimental": "The free base of 4-bromo-N-imidazolidin-2-ylidene-1-H-benzimidazol-5-amine was dissolved in sterile distilled water, hydrochloric acid was added and the hydrochloric salt of the compound was formed in situ. The solution was titrated with sodium hydroxide until the pH of the solution reached 8.0. […] The experimental animals used were normotensive Dutch-Belted male rabbits. A single drop (50 μl) of the drug formulation was administered topically by pipette onto the right eye (treated eye) at approximately 07:00 AM hours. The intraocular pressure of the rabbits (treated and untreated eyes) was measured 0 hours before and at 0.5, 1, 2, 3, 4, 6 and 8 hours after topical eye drop single administration. The intraocular pressure taken before the eye drop administration (0 hours) was used as a baseline value. Prior to the tonometric measurements, 0.05% proparacaine (50 μl) was administered to each eye. Tonometric intraocular pressure measurements were obtained with a Mentor Pneumotonometer. Additionally, all studies were masked. All animals were examined for sedation, ocular irritation, and changes in pupil diameter throughout the course of the experiments.\nThe free base of 4-bromo-N-imidazolidin-2-ylidene-1-H-benzimidazol-5-amine was dissolved in sterile distilled water, hydrochloric acid was added and the hydrochloric salt of the compound was formed in situ. The solution was titrated with sodium hydroxide until the pH of the solution reached 8.0. The final concentration of 4-bromo-N-imidazolidin-2-ylidene-1-H-benzimidazol-5-amine is 0.2% by weight. The experimental animals used were normotensive Dutch-Belted male rabbits. A single drop (50 μl) of the drug formulation was administered topically by pipette onto the right eye (treated eye) at approximately 07:00 AM hours. The intraocular pressure of the rabbits (treated and untreated eyes) was measured 0 hours before and at 2, 4 and 6 hours after topical eye drop single administration. The intraocular pressure taken before the eye drop administration (0 hours) was used as a baseline value. Prior to the tonometric measurements, 0.05% proparacaine (50 μl) was administered to each eye. Tonometric intraocular pressure measurements were obtained with a Mentor Pneumotonmeter. Additionally, all studies were masked. All animals were examined for sedation, ocular irritation, and changes in pupil diameter throughout the course of the experiments."}, "[4]": {"experiment": "Iris-ciliary body accumulation and melanin binding (pharmacokinetic data)", "conditions": "unpublished pharmacokinetic data"}, "[5]": {"system": "intraocular pressure of hypertensive monkeys", "experiment": "Intraocular pressure lowering in hypertensive monkeys", "assay_type": "in vivo, monkey", "conditions": "composition of Example 1 (FIG. 4 legend: 0.5% solution), compared to placebo"}, "[6]": {"system": "corneal epithelial cells", "experiment": "Corneal penetration assay"}, "[7]": {"experiment": "Corneal penetration assay"}, "[8]": {"conditions": "cited from earlier work; for clearance from the aqueous humor / passage through cornea and sclera: following topical dosing"}, "[9]": {"conditions": "stated as found earlier; cited from earlier work"}}, "data": [{"smiles": "Brc1c(N=C2NCCN2)ccc2[nH]cnc12", "note": "[4-bromo-N-imidazolidin-2-ylidene-1-H-benzimidazol-5-amine]", "values": [{"measurement": "amount found in urine", "setting": "[1]", "result": "trace amounts"}, {"measurement": "time for which sustained levels remain in the aqueous humor", "setting": "[2]; 35 μL topical to left eye, Dutch Belted female rabbits, FIG. 3A", "result": "over 8 hours"}, {"measurement": "time for which the level is maintained in several ocular tissues", "setting": "[2]; 35 μL topical to left eye, FIG. 3B", "result": "over 8 hrs"}, {"measurement": "plasma level", "setting": "[2]; after topical ocular dosing", "result": "low and below detectable level"}, {"measurement": "time for which the decrease in intraocular pressure is maintained", "setting": "[3]; 0.2% by weight solution, topical, FIG. 2", "result": "> 6", "unit": "h"}, {"measurement": "sedation, ocular irritation, and changes in pupil diameter", "setting": "[3]; 0.2% by weight solution", "result": "None of these effects were observed"}, {"measurement": "time for which the decrease in intraocular pressure is maintained", "setting": "[3]; 1% by weight solution, topical, FIG. 1", "result": "> 8", "unit": "h"}, {"measurement": "sedation, ocular irritation, and changes in pupil diameter", "setting": "[3]; 1% by weight solution", "result": "None of these effects were observed"}, {"measurement": "accumulation at the iris-ciliary body", "setting": "[4]", "result": "very little accumulation"}, {"measurement": "melanin binding", "setting": "[4]", "result": "no sign of melanin binding"}, {"measurement": "time for which the decrease in intraocular pressure is maintained", "setting": "[5]", "result": "up to 24 hours"}, {"measurement": "penetration of corneal epithelial cells (in words)", "setting": "[6]", "result": "poorly"}, {"measurement": "Papp", "setting": "[7]", "result": "0.119 ± 0.01", "unit": "×10⁻⁶ cm/s"}]}, {"smiles": "Brc1c(NC2=NCCN2)ccc2nccnc12", "note": "[Brimonidine, (5-bromo-quinoxalin-6-yl)-imidazolidin-2-ylidene-amine]", "values": [{"measurement": "time in which levels in the aqueous humor are substantially decreased", "setting": "[2]; 0.15% brimonidine, similar study done previously, FIG. 3A", "result": 3, "unit": "h"}, {"measurement": "time in which intraocular pressure returns to baseline", "setting": "[3]; brimonidine containing composition (0.15% solution per FIG. 1 legend), topical", "result": "< 6", "unit": "h"}, {"measurement": "clearance from the aqueous humor", "setting": "[8]", "result": "rapidly cleared"}, {"measurement": "passage through cornea and sclera", "setting": "[8]", "result": "readily pass through the cornea and sclera"}, {"measurement": "time in which the level decreases in aqueous humor", "setting": "[8]; regardless of the dose, Acheampong et al.", "result": "three"}, {"measurement": "penetration of corneal epithelial cells (in words)", "setting": "[6]", "result": "moderate penetrator"}, {"measurement": "Papp", "setting": "[7]", "result": "8.57 ± 0.64", "unit": "×10⁻⁶ cm/s"}, {"measurement": "accumulation in the iris-ciliary body", "setting": "[9]", "result": "accumulate in the iris-ciliary body"}, {"measurement": "binding to the pigment melanin", "setting": "[9]", "result": "high binding"}]}, {"smiles": "OC[C@@H](O)[C@@H](O)[C@H](O)[C@H](O)CO", "note": "[Compound 3H-mannitol, 3H-mannitol]", "values": [{"measurement": "Papp (×10^−6 cm/s)", "setting": "[6]; permeability coefficient, corneal epithelial cells", "result": "0.512 ± 0.069 ×10^−6 cm/s"}]}, {"smiles": "Nc1cc(Cl)c(N=C2NCCN2)c(Cl)c1", "note": "[apraclonidine, 2,6-dichloro-N-imidazolidin-2-ylidene-benzene-1,4-diamine]", "values": [{"measurement": "clearance from the aqueous humor", "setting": "[8]", "result": "rapidly cleared"}, {"measurement": "passage through cornea and sclera", "setting": "[8]", "result": "readily pass through the cornea and sclera"}, {"measurement": "accumulation in the iris-ciliary body", "setting": "[9]", "result": "accumulate in the iris-ciliary body"}, {"measurement": "binding to the pigment melanin", "setting": "[9]", "result": "high binding"}]}]}
